“Also recorded” adds a separate entry of the source. Where two headings read alike, the source gives them in different places. Blank lines part the entries; values can stand above or below the compound they belong to. Non-standard residues stand in square brackets, D forms with d. No end group written: not given here. *: point of attachment. Biotin = O=C1N[C@H]2[C@H](CS[C@H]2CCCCC(=O)*)N1; Lys(Me3) = C[N+](C)(C)CCCC[C@H](N)C(=O)O
Columns and labels:
NO66_183–641 = tested on: NO66_183–641; parameters: method as in PMID 34843649; conditions: NO66_183–641 (0.3 μM), SPE-MS, cited from earlier work; for K^app m: RPL8_205–224 as substrate, 2OG or Fe(II)
full-length His6-JMJD6 [1] = biological target: T1, full-length His6-JMJD6 (Homo sapiens, UniProt Q6NYC1); experiment: SPE-MS kinetics of JMJD6-catalysed lysyl hydroxylation (2OG, Fe(II), LAA, BRD-derived peptides); type: biochemical; conditions: for K m / apparent maximum velocity v^app max / apparent Michaelis constant K^app m: LAA 100 μM, 50 mM Tris pH 7.5, mean ± SD n = 3; for K m: read-out: Michaelis constant Km (K^app m); for substrate inhibition of JMJD6 catalysis: high substrate concentrations (>2 μM)
T1 construct: An enzyme mixture (10 μL) containing full-length His6-JMJD6 (5 μM; final concentration: 0.05 μM); made in house; host or cells: Escherichia coli BL21 (DE3), pET-28a(+) plasmid
Protocol: (§1) Recombinant human JMJD6 (full length with a N-terminal His6-tag) was produced in Escherichia coli BL21 (DE3) cells using a pET-28a(+) plasmid and purified by standard Ni(II)-affinity size-exclusion chromatography, as previously reported.[40] […] Purified JMJD6 was stored at −78 °C; fresh aliquots were used for all JMJD6 assays.
Peptides were used as 10 mM stock solutions in DMSO (Sigma-Aldrich; BioUltra grade).
(§2) Assay samples were aspirated under vacuum for 0.4 s, then loaded onto a C4 solid phase extraction (SPE) cartridge. After loading, the C4 SPE cartridge was washed with 0.1%v/v aqueous formic acid to remove non-volatile buffer salts (5 s, 1.5 mL min^−1). The peptide was eluted from the SPE cartridge with 0.1%v/v aqueous formic acid in 75/25v/v acetonitrile/water into the mass spectrometer (5 s, 1.6 mL min^−1) and the SPE cartridge re-equilibrated with 0.1%v/v aqueous formic acid (1 s, 1.25 mL min^−1).
Peaks corresponding to the m/z +5 charge states of the BRD-derived substrate peptide and the hydroxylated product peptides were extracted from the ion chromatogram and integrated using RapidFire Integrator 4.3.0 (Agilent). Peak area data were exported into Microsoft Excel and used to calculate the relative abundance of the mono-hydroxylated product peptide using the following equation: […]
The concentration of the mono-hydroxylated product peptide was calculated by multiplying the %-fraction of the mono-hydroxylated product peptide by the initial concentration of the substrate peptide employed in the assay. Initial reaction velocities were then calculated and fitted to a Michaelis–Menten plot using nonlinear regression (GraphPad Prism 5).

full-length His6-JMJD6 [2] = biological target: T1, full-length His6-JMJD6; experiment: SPE-MS time-course of JMJD6-catalysed hydroxylation of BRD-derived peptides; type: biochemical; conditions: 0.05 μM JMJD6, 2 μM peptide, 2OG 200 μM, FAS 2 μM, LAA 100 μM, Tris 50 mM pH 7.5; for number of hydroxylation products observed (+16 Da mass shifts): initial time-course, n = 3; for hydroxylation by JMJD6 (in words): time-course, SPE-MS
Protocol: Fig. 2 JMJD6-catalysed hydroxylation of homologous 40 mer peptides derived from bromodomain-containing proteins BRD2, BRD3, and BRD4. (a)–(c) Red MS spectra: JMJD6-catalysed hydroxylation after 10 min of (a) BRD2_520–559, (b) BRD3_463–502, and (c) BRD4_511–550. Black MS spectra: no enzyme controls. (d)–(f) JMJD6-catalysed hydroxylation of (d) BRD2_520–559, (e) BRD3_463–502, and (f) BRD4_511–550 showing the relative abundance of the non-hydroxylated substrate (orange circles), mono-hydroxylated product (green squares), di-hydroxylated product (purple triangles) and tri-hydroxylated product (light blue diamonds) over time. Data are means of three independent runs (n = 3; means ± SD).
as §2, with “The JMJD6-catalysed hydroxylation of the BRD-derived substrate peptide was monitored at ambient temperature by SPE-MS using a RapidFire RF 365 high-throughput sampling robot (Agilent) attached to an iFunnel Agilent 6550 accurate mass quadrupole time-of-flight (Q-TOF) mass spectrometer, which was operated in the positive ionization mode. Assay” for “Assay”
Peaks corresponding to the m/z +5 charge states of the BRD-derived substrate peptide and the hydroxylated product peptides were extracted from the ion chromatogram and integrated using RapidFire Integrator 4.3.0 (Agilent). Peak area data were exported into Microsoft Excel and used to calculate the relative abundance of the mono-hydroxylated product peptide using the following equation:
% of mono-hydroxylated product peptide = 100 × (integral of mono-hydroxylated product peptide)/(integral of non-hydroxylated substrate peptide + sum of integrals of all hydroxylated product peptides). Note that for the time-period used to calculate initial reaction velocities, negligible amounts of multi-hydroxylated product peptide were observed (<5%); therefore, the sum of integrals of all hydroxylated product peptides ≈ the integral of the mono-hydroxylated product peptide.

[3] = retention on SPE cartridges; type: physicochemical; conditions: C4 SPE cartridge
Description: as §2, with “The JMJD6-catalysed hydroxylation of the BRD-derived substrate peptide was monitored at ambient temperature by SPE-MS using a RapidFire RF 365 high-throughput sampling robot (Agilent) attached to an iFunnel Agilent 6550 accurate mass quadrupole time-of-flight (Q-TOF) mass spectrometer, which was operated in the positive ionization mode. Assay” for “Assay”

JMJD5 = tested on: JMJD5; parameters: method as in PMID 37292060; conditions: SPE-MS, cited from earlier work
BBOX = tested on: BBOX; parameters: method as in PMID 25030770, PMID 24317009; conditions: BBOX (0.05 μM); 1H NMR turnover assay; cited from earlier work
KDM4C = tested on: KDM4C; parameters: method as in PMID 21859681; conditions: KDM4C (0.5 μM), SPE-MS, cited from earlier work
AspH315–758 = tested on: AspH315–758; parameters: method as in PMID 32107312; conditions: AspH315–758 (0.1 μM), hFX-CP101–119 as substrate; SPE-MS; 2OG or Fe(II); cited from earlier work
PHD2 = tested on: PHD2; parameters: method as in PMID 18952043; conditions: PHD2 (1.0 nM), FRET assay, cited from earlier work; for K^app m: 2OG or Fe(II)
full-length His6-JMJD6 [4] = biological target: T1, full-length His6-JMJD6; experiment: SPE-MS kinetics of JMJD6 for O2; type: biochemical; conditions: O2 varied; BRD4_511–550 (2 μM) as substrate; 0.05 μM full-length His6-JMJD6; 50 mM Tris pH 7.5; 37 °C, quenched after 60 or 90 s; SPE-MS; mean ± SD n = 3
Protocol: as §1
Assays to determine the kinetic parameters of JMJD6 for O2 were performed in 2 mL gas-tight glass vials (Sigma-Aldrich) in independent triplicates. 50 mM Tris buffer (pH 7.5; 0.95 mL) was incubated in a 2 mL gas-tight glass vial at 37 °C for 30 min with a fixed O2 concentration (in N2; specified in Fig S9, ESI ^†), adjusted using a mass flow controller. […] The JMJD6-catalysed reaction was performed at 37 °C at a fixed O2 concentration and was stopped after the reaction time specified (Fig. S9, ESI ^†) by the addition of 20%v/v aqueous formic acid (100 μL) and analysed by SPE-MS. The %-concentration of O2 in N2, adjusted with a mass flow controller, was converted into an O2 concentration [μM] by calibration using a standard (i.e., y[μM] = 9.026·x[%]).[100] Data were analysed by SPE-MS as described above to calculate apparent JMJD6 kinetic parameters for O2.

His6-JMJD6_1–362 = conditions: MALDI-TOF assay, LUC7L2_267–278 as the substrate; cited from earlier work
[5] = BRD peptide substrate varied, 0.05 μM full-length His6-JMJD6, 2OG 200 μM, FAS 2 μM, ambient temperature, substrate inhibition fit
[6] = BRD peptide substrate varied, 0.05 μM full-length His6-JMJD6, 2OG 200 μM, pH 7.5, SPE-MS, calculated from v^app max assuming active JMJD6 = total enzyme, n = 3
[7] = BRD peptide substrate varied, 0.05 μM full-length His6-JMJD6, 2OG 200 μM, pH 7.5, SPE-MS, n = 3
[8] = 2OG or Fe(II) varied, BRD4_511–550 (2 μM) as substrate, 0.05 μM full-length His6-JMJD6, ambient temperature, ~20 min, SPE-MS

Compound: RPL8_205–224: NO66 substrate
K m (substrate) (NO66_183–641): 19.1 ± 6.3 µM

K m (full-length His6-JMJD6 [1]; [5]): 0.89 ± 0.33 µM | turnover number kcat (k^app cat) (full-length His6-JMJD6 [1]; [6]): 0.24 ± 0.05 s⁻¹ | catalytic efficiency kcat/Km (full-length His6-JMJD6 [1]; [7]): 270000 ± 110000 M⁻¹ s⁻¹ | substrate inhibition of JMJD6 catalysis (full-length His6-JMJD6 [1]): inhibit JMJD6 catalysis | number of hydroxylation products observed (+16 Da mass shifts) (full-length His6-JMJD6 [2]): three
Compound: LAELQEQLRAVHEQLAALSQGPISKPKRKREKKEKKKKRK [BRD2_520–559, 40-mer peptide fragment derived from human BRD2, JMJD6 substrate, prepared by SPPS]
hydroxylation by JMJD6 (in words) (full-length His6-JMJD6 [2]): efficiently hydroxylated by isolated recombinant JMJD6; also recorded: multiple hydroxylations | retention on SPE cartridge [3]: efficiently retained on a C4 SPE cartridge

Compound: RSP6_128–148: JMJD5 substrate
k cat/Km (substrate) (JMJD5): 11500 ± 6300 M⁻¹ s⁻¹

Compound: C[N+](C)(C)CCCC(=O)[O-] [γ-butyrobetaine]
K m (substrate) (BBOX): 4.2 µM | k cat (substrate) (BBOX): 0.83 s⁻¹

apparent maximum velocity v^app max (full-length His6-JMJD6 [1]; BRD peptide substrate varied, 0.05 μM full-length His6-JMJD6, 2OG 200 μM, FAS 2 μM, ambient temperature, mono-hydroxylation, substrate inhibition fit): 5.2 ± 1.3 nM/s | K m (full-length His6-JMJD6 [1]; [5]): 1.2 ± 0.4 µM | turnover number kcat (k^app cat) (full-length His6-JMJD6 [1]; [6]): 0.10 ± 0.02 s⁻¹ | catalytic efficiency kcat/Km (full-length His6-JMJD6 [1]; [7]): 87000 ± 38000 M⁻¹ s⁻¹ | kcat/Km compared with BRD4_511–550 (fold less) (full-length His6-JMJD6 [1]; SPE-MS, JMJD6 0.05 μM): ~2 fold | substrate inhibition of JMJD6 catalysis (full-length His6-JMJD6 [1]): inhibit JMJD6 catalysis | number of hydroxylation products observed (+16 Da mass shifts) (full-length His6-JMJD6 [2]): two
Compound: LAELQEQLKAVHEQLAALSQAPVNKPKKKKEKKEKEKKKK [BRD3_463–502, 40-mer peptide fragment derived from human BRD3, JMJD6 substrate, prepared by SPPS]
hydroxylation by JMJD6 (in words) (full-length His6-JMJD6 [2]): efficiently hydroxylated by isolated recombinant JMJD6; also recorded: multiple hydroxylations | retention on SPE cartridge [3]: efficiently retained on a C4 SPE cartridge

Compound: ARTAQTAR[Lys(Me3)]STGGIA [a histone 3 K9(me3) derivative, KDM4C substrate]
K m (substrate) (KDM4C): 5.8 ± 0.7 µM | k cat (substrate) (KDM4C): 0.089 ± 0.004 s⁻¹ | k cat/Km (substrate) (KDM4C): 15400 ± 1900 M⁻¹ s⁻¹

Compound: ammonium iron(II) sulfate hexahydrate [Fe(II)]
apparent Michaelis constant K^app m (full-length His6-JMJD6 [1]; [8]): 0.19 ± 0.02 µM | apparent maximum velocity v^app max (full-length His6-JMJD6 [1]; [8]): 3.6 ± 0.1 nM/s | apparent turnover number k^app cat (full-length His6-JMJD6 [1]; 2OG or Fe(II) varied, BRD4_511–550 (2 μM) as substrate, 0.05 μM full-length His6-JMJD6, pH 7.5, ambient temperature, calculated from v^app max assuming active JMJD6 = total enzyme, n = 3): 0.072 ± 0.002 s⁻¹ | specificity constant kcat/Km (full-length His6-JMJD6 [1]; 2OG or Fe(II) varied, BRD4_511–550 (2 μM) as substrate, 0.05 μM full-length His6-JMJD6, pH 7.5, ambient temperature, n = 3): 380000 ± 50000 M⁻¹ s⁻¹ | k cat/Km (JMJD5; RSP6_128–148 as substrate, 2OG or Fe(II)): 38500 ± 6200 M⁻¹ s⁻¹ | K^app m (AspH315–758): 1.42 ± 0.16 µM | k cat/Km (AspH315–758): 130000 ± 30000 M⁻¹ s⁻¹ | k^app cat (AspH315–758): 0.19 ± 0.03 s⁻¹ | K^app m (PHD2; HIF-1α-derived biotin-DLEMLAPYIPMDDDFQL as substrate): 0.89 ± 0.07 µM | K^app m (NO66_183–641): 0.014 ± 0.001 µM

Compound: O=C(O)CCC(=O)C(=O)O [2OG, 2-oxoglutarate]
apparent Michaelis constant K^app m (full-length His6-JMJD6 [1]; [8]): 23.3 ± 2.5 µM | apparent Michaelis constant K^app m for O2 (full-length His6-JMJD6 [4]): 74 ± 14 µM | k^app cat (AspH315–758): 0.19 ± 0.03 s⁻¹ | K^app m (PHD2; HIF-1α-derived biotin-[…] as substrate): 0.35 ± 0.03 µM | k^app cat (KDM4C; ARTAQTARK(me3)STGGIA as substrate): 0.075 ± 0.001 s⁻¹ | K^app m (NO66_183–641): 0.83 ± 0.09 µM | K^app m for 2OG (His6-JMJD6_1–362): ~31 µM

Compound: Biotin-DLEMLAPYIPMDDDFQL [HIF-1α-derived PHD2 substrate]
K m (substrate) (PHD2): 7.3 ± 1.3 µM

Source: paper PMC11878239, “Biochemical investigations using mass spectrometry to monitor JMJD6-catalysed hydroxylation of multi-lysine containing bromodomain-derived substrates” (RSC Chemical Biology, 2025)
